Measured values: patent US20220153766A1, “CONDENSED TRICYCLIC COMPOUND USED AS KINASE INHIBITOR” (Hangzhou Innogate Pharma Co., Ltd., priority 2019, published 2022)

Experiments:
[1] = Pharmacokinetic study in rats after intragastrical administration; format: in vivo; settings: male, rat, plasma, po, SD rats, 3 mg/kg
ALK = ALK (Homo sapiens, UniProt Q9UM73); test: ALK kinase activity inhibition, Caliper mobility shift assay, method 2; format: biochemical; settings: ALK 1.25 nM, ATP 30 μM
Method: 2. ALK Kinase Activity Inhibition Experiment:
Method 2: Caliper mobility shift assay was used to measure ALK protein kinase activity. The method is basically the same as method 1, with individual parameters adjusted. The initial concentration of the compound is 1 mM, and sequentially diluted 4-fold to make 6 points (7 points for some individual compounds). Use a dispenser Echo 550 to transfer 250 nL of 100-fold final concentration of the compound to the target plate 3573, add 10 μL ALK with final concentration of 1.25 nM, incubate at room temperature for 10 minutes (the negative control well contains 10 μL kinase buffer and 250 nL 100% DMSO; the positive control well contains 10 μL kinase solution and 250 nL 100% DMSO). On the kinase ALK, add 15 μL of ATP with a final concentration of 30 μM and 3 μM of the substrate peptide No. 22 mixed solution to react for 25 minutes; add 30 μL of stop detection solution containing EDTA to stop the kinase reaction. Use Caliper EZ Reader to read the conversion rate. Inhibition rate %=(Average positive control conversion rate %−Sample conversion rate %/(Average positive control conversion rate %−Average negative control conversion rate %). Among them: negative control wells represent the conversion rate readings without enzyme activity; positive control wells represent the conversion rate readings of wells without compound inhibition. Take the log value of the concentration as the X-axis, and the percentage inhibition rate on the Y-axis. Log (inhibitor) vs. response—Variable slope of analysis software GraphPad Prism 5 was used to fit the curve to obtain the IC50 value of each compound on the enzyme activity. Calculation formula: Y=Bottom+(Top−Bottom)/(1+10^((Log IC50−X)*HillSlope)).

ALK, sequence (Q9UM73 19-1620): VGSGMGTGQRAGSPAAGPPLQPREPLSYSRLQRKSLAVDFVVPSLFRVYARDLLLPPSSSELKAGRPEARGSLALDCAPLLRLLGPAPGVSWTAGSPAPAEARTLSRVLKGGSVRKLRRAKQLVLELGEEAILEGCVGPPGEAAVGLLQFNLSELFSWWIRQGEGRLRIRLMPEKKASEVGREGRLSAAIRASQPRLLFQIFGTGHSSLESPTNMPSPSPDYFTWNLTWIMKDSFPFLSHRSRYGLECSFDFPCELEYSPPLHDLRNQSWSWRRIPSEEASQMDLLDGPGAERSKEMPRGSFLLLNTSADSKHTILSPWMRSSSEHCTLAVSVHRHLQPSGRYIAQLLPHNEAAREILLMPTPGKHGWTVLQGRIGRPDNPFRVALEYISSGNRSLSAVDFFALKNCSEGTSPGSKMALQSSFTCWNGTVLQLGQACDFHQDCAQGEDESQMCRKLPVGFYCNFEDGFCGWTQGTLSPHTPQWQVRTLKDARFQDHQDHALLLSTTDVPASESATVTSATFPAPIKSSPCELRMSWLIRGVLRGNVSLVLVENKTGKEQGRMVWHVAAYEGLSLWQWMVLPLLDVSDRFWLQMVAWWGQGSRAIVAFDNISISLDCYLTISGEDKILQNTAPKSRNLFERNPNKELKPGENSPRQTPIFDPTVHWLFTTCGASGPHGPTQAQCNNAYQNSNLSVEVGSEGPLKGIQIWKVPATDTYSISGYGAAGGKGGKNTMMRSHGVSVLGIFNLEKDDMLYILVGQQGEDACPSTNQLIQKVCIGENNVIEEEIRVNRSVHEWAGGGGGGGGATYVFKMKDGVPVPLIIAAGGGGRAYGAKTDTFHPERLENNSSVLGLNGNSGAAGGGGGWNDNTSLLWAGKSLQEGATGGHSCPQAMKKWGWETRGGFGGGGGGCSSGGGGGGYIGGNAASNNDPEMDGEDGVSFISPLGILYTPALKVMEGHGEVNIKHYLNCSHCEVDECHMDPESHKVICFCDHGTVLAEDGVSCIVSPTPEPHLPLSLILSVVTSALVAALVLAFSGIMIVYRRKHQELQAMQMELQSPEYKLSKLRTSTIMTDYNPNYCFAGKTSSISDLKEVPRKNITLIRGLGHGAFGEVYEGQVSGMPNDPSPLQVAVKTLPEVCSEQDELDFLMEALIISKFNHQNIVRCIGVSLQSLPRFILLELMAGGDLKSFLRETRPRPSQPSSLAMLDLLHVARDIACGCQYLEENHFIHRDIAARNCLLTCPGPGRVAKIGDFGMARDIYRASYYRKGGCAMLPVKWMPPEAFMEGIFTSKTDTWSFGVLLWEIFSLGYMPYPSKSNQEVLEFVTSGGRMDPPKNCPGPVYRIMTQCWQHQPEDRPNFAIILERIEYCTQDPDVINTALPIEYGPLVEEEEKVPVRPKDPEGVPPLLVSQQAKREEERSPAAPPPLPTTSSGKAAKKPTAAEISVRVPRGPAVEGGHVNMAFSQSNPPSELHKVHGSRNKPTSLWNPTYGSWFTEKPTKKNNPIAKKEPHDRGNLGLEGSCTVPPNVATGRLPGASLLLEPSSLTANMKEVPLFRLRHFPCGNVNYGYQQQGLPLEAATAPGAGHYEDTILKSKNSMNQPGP

Cmax [1]: 196 ng/mL
Tmax [1]: 5.33 h
half-life [1]: 5.17 h
AUC(0-t) ([1]; read-out: AUC0-24 h): 2750 ng·h/mL
IC50 (ALK): 1 to 50 nM
SMILES: Cc1cc(Nc2ncc(Cl)c(Nc3ccccc3P(C)(C)=O)n2)cc2c1N1CCN(C3CCN(C)CC3)C[C@@H]1CO2 [Compound 27R]
